Laboratory results: ChEMBL document CHEMBL4342466, “Novel, Self-Assembling Dimeric Inhibitors of Human β Tryptase” (J Med Chem, 2020)
Calls of active or inactive are those of the source. The rule behind the calls is not given here.

What was measured:
[1] = Stability in human liver microsomes assessed as parent compound remaining at 15 uM in presence of NADPH incubated for 60 mins; format: ADME, Microsome; conditions: for Stability: microsomes, 1 h, 15 µM; for remaining at 1 h, 15 µM: liver microsomes, read-out: Stability
[2] = Inhibition of human recombinant beta-tryptase pre-incubated for 3 hrs before N-tert-butoxycarbonyl-Gln-Ala-Arg-AMC substrate addition and measured every 30 secs for 15 mins by spectrometry
[3] = Stability in human liver microsomes assessed as parent compound remaining at 15 uM in absence of NADPH incubated for 60 mins; format: ADME, Microsome; conditions: for Stability: microsomes, 1 h, 15 µM; for remaining at 1 h, 15 µM: liver microsomes, read-out: Stability
[4] = Stability in human liver microsomes assessed as parent compound remaining at 15 uM in presence of UDPGA incubated for 60 mins; format: ADME, Microsome; conditions: for Stability: microsomes, 1 h, 15 µM; for remaining at 1 h, 15 µM: liver microsomes, read-out: Stability
[5] = target: T1, Tryptase beta-2 (Mus musculus, UniProt P21845); experiment: Inhibition of mouse MCP6 pre-incubated for 3 hrs before N-tert-butoxycarbonyl-Gln-Ala-Arg-AMC substrate addition and measured every 30 secs for 15 mins by spectrometry
T1 sequence (P21845 whole entry): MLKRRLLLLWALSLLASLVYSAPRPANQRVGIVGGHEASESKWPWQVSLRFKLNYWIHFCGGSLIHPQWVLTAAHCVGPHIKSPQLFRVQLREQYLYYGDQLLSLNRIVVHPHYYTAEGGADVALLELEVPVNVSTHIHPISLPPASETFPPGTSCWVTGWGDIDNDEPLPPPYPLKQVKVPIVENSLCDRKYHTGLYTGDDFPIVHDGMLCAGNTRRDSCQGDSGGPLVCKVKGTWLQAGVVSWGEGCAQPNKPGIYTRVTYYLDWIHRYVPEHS

[6] = Solubility of the compound; format: physicochemical
[7] = Tmax in C57BL/6 mouse at 50 mg/kg, po measured over 0.25 to 24 hrs by LC-MS/MS analysis; format: ADME, organism-based; conditions: in vivo
[8] = Lipophilicity, logD of the compound at pH 7.4; format: physicochemical; conditions: buffer
[9] = Time for Clast in C57BL/6 mouse at 5 mg/kg, iv measured over 0.25 to 24 hrs by LC-MS/MS analysis; format: ADME, organism-based; conditions: in vivo
[10] = Time for Clast in C57BL/6 mouse at 50 mg/kg, po measured over 0.25 to 24 hrs by LC-MS/MS analysis; format: ADME, organism-based; conditions: in vivo
[11] = Half life in C57BL/6 mouse at 5 mg/kg, iv measured over 0.25 to 24 hrs by LC-MS/MS analysis; format: ADME, organism-based; conditions: in vivo
[12] = Clearance in C57BL/6 mouse at 5 mg/kg, iv measured over 0.25 to 24 hrs by LC-MS/MS analysis; format: ADME, organism-based; conditions: in vivo
[13] = organism: Homo sapiens; experiment: Inhibition of human recombinant beta-tryptase assessed as remaining enzyme activity at 10 uM pre-incubated for 3 hrs before N-tert-butoxycarbonyl-Gln-Ala-Arg-AMC substrate addition and measured after 8 hrs by spectrometry relative to control
[14] = test system: HMC1; experiment: Inhibition of beta-tryptase in human HMC1 cells assessed as effect on tryptase activity by measured cell lysis; format: cell-based
[15] = test system: HMC1; experiment: Inhibition of beta-tryptase in human HMC1 cells assessed as effect on A23187-induced degranulation; format: cell-based
[16] = test system: Mus musculus; experiment: Inhibition of tryptase activity in tumors of mouse xenografted with human HMC1 cells at 10 mg/kg, iv dosed at time 0 and again 24 hrs later and measured at 24 to 48 hrs after second dose; format: functional, organism-based
[17] = Plasma concentration in mouse xenografted with human HMC1 cells at 10 mg/kg, iv dosed at time 0 and again 24 hrs later and measured at 8 hrs after second dose by LC-MS/MS analysis; format: ADME, organism-based
[18] = Drug concentration in tumor of mouse xenografted with human HMC1 cells at 10 mg/kg, iv dosed at time 0 and again 24 hrs later and measured at 0 hrs after second dose by LC-MS/MS analysis; format: ADME, organism-based, Neoplasm; conditions: read-out: Drug uptake
[19] = Drug concentration in tumor of mouse xenografted with human HMC1 cells at 10 mg/kg, iv dosed at time 0 and again 24 hrs later and measured at 8 hrs after second dose by LC-MS/MS analysis; format: ADME, organism-based, Neoplasm; conditions: read-out: Drug uptake
[20] = Plasma concentration in mouse xenografted with human HMC1 cells at 10 mg/kg, iv dosed at time 0 and again 24 hrs later and measured at 2 hrs after second dose by LC-MS/MS analysis; format: ADME, organism-based
[21] = Drug concentration in tumor of mouse xenografted with human HMC1 cells at 10 mg/kg, iv dosed at time 0 and again 24 hrs later and measured at 24 hrs after second dose by LC-MS/MS analysis; format: ADME, organism-based, Neoplasm; conditions: read-out: Drug uptake
[22] = Plasma concentration in mouse xenografted with human HMC1 cells at 10 mg/kg, iv dosed at time 0 and again 24 hrs later and measured at 24 hrs after second dose by LC-MS/MS analysis; format: ADME, organism-based
[23] = Drug concentration in tumor of mouse xenografted with human HMC1 cells at 10 mg/kg, iv dosed at time 0 and again 24 hrs later and measured at 2 hrs after second dose by LC-MS/MS analysis; format: ADME, organism-based, Neoplasm; conditions: read-out: Drug uptake

| SMILES | IC50 [2] [nM] | IC50 [5] [nM] | remaining at 1 h, 15 µM [4] [%] | remaining at 1 h, 15 µM [1] [%] | other results |
| --- | --- | --- | --- | --- | --- |
| NCc1ccc2c(c1)C1(CCN(C(=O)c3ccc(CO)c(O)c3)CC1)CO2 | 656 | 4690 | – | – | Stability [1]: Stable; Stability [3]: Stable; Stability [4]: Stable |
| NCc1ccc2c(c1)C1(CCN(C(=O)c3ccc(O)c(O)c3)CC1)CO2 | 635 | 2540 | 87 | – | Stability [1]: Stable; remaining at 1 h, 15 µM [3]: 94% |
| COc1cc(C(=O)N2CCC3(CC2)COc2ccc(CN)cc23)cc(O)c1O | 953 | 11800 | 72 | 74 | Stability [3]: Stable |
| CONC(=O)c1cc(C(=O)N2CCC3(CC2)COc2ccc(CN)cc23)ccc1O | 570 | 2160 | 67 | 87 | Stability [3]: Stable |
| Cc1cc(C(=O)N2CCC(c3cccc(CN)c3)CC2)cc(-c2cccc(B(O)O)c2)c1C | 1250 | – | – | – | – |
| NCc1ccc2c(c1)C1(CCN(C(=O)c3cccc(-c4cccc(B(O)O)c4)c3)CC1)CO2 [listing 1 of 2 here] | 1220 | 1140 | 94 | 96 | solubility [6]: Soluble; Tmax [7]: 30 min; remaining at 1 h, 15 µM [3]: 85%; logD [8]: 1.22; Time [9]: 24 h; Time [10]: 8 h; half-life [11]: > 360 min |
| CSc1sc(C(=O)N2CCC3(CC2)COc2ccc(CN)cc23)cc1-c1cccc2c1COB2O | 18 | – | – | – | Stability [1]: Stable; Stability [3]: Stable; Stability [4]: Stable |
| NCc1cccc(C2CCN(C(=O)c3ccc(CO)c(O)c3)CC2)c1 | 65.8 | 1550 | 81 | 68 | remaining at 1 h, 15 µM [3]: 63% |
| CONC(=O)c1ccc(C(=O)N2CCC(c3cccc(CN)c3)CC2)cc1O | 120 | – | – | – | Stability [1]: Stable; Stability [3]: Stable; Stability [4]: Stable |
| NCc1cccc(C2CCN(C(=O)c3ccc(O)c(O)c3)CC2)c1 | 452 | 2310 | 53 | 52 | remaining at 1 h, 15 µM [3]: 43%; half-life [11]: 45.6 min; clearance [12]: 519 mL/min/kg |
| CONC(=O)c1cc(C(=O)N2CCC(c3cccc(CN)c3)CC2)ccc1O | 3310 | 455 | 68 | 84 | remaining at 1 h, 15 µM [3]: 81% |
| NCc1ccc2c(c1)C1(CCN(C(=O)c3cccc(-c4cccc(B(O)O)c4)c3)CC1)CO2 [listing 2 of 2 here] | – | – | – | – | inhibition [13]: inactive; inhibition [14]: inactive; inhibition [15]: Active; inhibition [16]: Active |
| CONC(=O)c1ccc(C(=O)N2CCC3(CC2)COc2ccc(CN)cc23)cc1O | 43.4 | – | – | – | Stability [1]: Stable; Stability [3]: Stable; Stability [4]: Stable |
| NCc1ccc2c(c1)C1(CCN(C(=O)c3cc(O)c(O)c(Cl)c3)CC1)CO2 [listing 1 of 2 here] | – | – | – | – | inhibition [13]: inactive; inhibition [14]: inactive; inhibition [15]: Active; inhibition [16]: Active |
| NCc1ccc2c(c1)C1(CCN(C(=O)c3cccc(-c4cccc5c4COB5O)c3)CC1)CO2 | 1500 | 2890 | 82 | 82 | logD [8]: 1.69; inhibition [16]: inactive |
| Cc1cc(C(=O)N2CCC3(CC2)COc2ccc(CN)cc23)cc(-c2cccc(B(O)O)c2)c1C | 1360 | – | – | – | – |
| CSc1sc(C(=O)N2CCC(c3cccc(CN)c3)CC2)cc1-c1cccc2c1COB2O | 14.2 | – | – | – | – |
| COc1cc(C(=O)N2CCC(c3cccc(CN)c3)CC2)cc(O)c1O | 925 | 7430 | – | – | – |
| NCc1ccc2c(c1)C1(CCN(C(=O)c3cc(O)c(O)c(Cl)c3)CC1)CO2.O=C(O)C(F)(F)F | – | – | – | – | concentration at 8 h [17]: 1.28 nM; concentration at 0 h [18]: 17.6 nM; concentration at 8 h [19]: 58.6 nM; concentration at 2 h [20]: 311 nM; concentration at 24 h [21]: 8.64 nM; concentration at 24 h [22]: 0.02 nM; concentration at 2 h [23]: 314 nM |
| NCc1cccc(C2CCN(C(=O)c3cc(O)c(O)c(Cl)c3)CC2)c1 | 339 | 17500 | 18 | 29 | remaining at 1 h, 15 µM [3]: 28% |
| NCc1cccc(C2CCN(C(=O)c3cccc(-c4cccc(B(O)O)c4)c3)CC2)c1 | 843 | 1420 | 1 | 2 | remaining at 1 h, 15 µM [3]: 1%; half-life [11]: 216 min; clearance [12]: 52.5 mL/min/kg |
| NCc1ccc2c(c1)C1(CCN(C(=O)c3cc(O)c(O)c(Cl)c3)CC1)CO2 [listing 2 of 2 here] | 238 | 11700 | – | – | solubility [6]: Soluble; Tmax [7]: 15 min; Time [9]: 8 h; Time [10]: 24 h; half-life [11]: > 360 min |
| NCc1ccc2c(c1)C1(CCN(C(=O)c3ccc(Cl)c(-c4cccc(B(O)O)c4)c3)CC1)CO2 | 1100 | 599 | – | – | – |
| NCc1cccc(C2CCN(C(=O)/C=C/c3ccc4c(c3)OB(c3ccc5cccc(C(=O)N6CCC(c7cccc(CN)c7)CC6)c5c3)O4)CC2)c1 | 411 | – | – | – | – |
